melting point [°C] | SMILES
> 250 | Cl.Cn1cc(CN2CCN(C(=O)c3cc(C(F)(F)F)cc(C(F)(F)F)c3)[C@H](Cc3ccc4ccccc4c3)C2)cn1
60 to 70 | Cc1ccc(CC2CN(CCCc3cccnc3)CCN2C(=O)c2cc(C(F)(F)F)cc(C(F)(F)F)c2)cc1O.Cl.Cl (centres unmarked) [Example 8, 1-[3,5-bis(trifluoromethyl)benzoyl]-2-(3-hydroxy-4-methylbenzyl)-4-[3-(3-pyridyl)propyl]piperazine dihydrochloride]
80 to 95 | Cl.Cl.O=C(c1cc(C(F)(F)F)cc(C(F)(F)F)c1)N1CCN(CCCc2cccnc2)C[C@H]1Cc1ccc(F)c(O)c1
198 to 208 | Cl.Cl.O=C(c1cc(C(F)(F)F)cc(C(F)(F)F)c1)N1CCN(Cc2cccnc2)C[C@H]1Cc1ccc2ccccc2c1
181 to 186 | CC1(C)COCCN1CC#CCN1CCN(C(=O)c2cc(C(F)(F)F)cc(C(F)(F)F)c2)[C@H](Cc2ccc(Cl)c(O)c2)C1.Cl.Cl
255 to 270 | Cc1ccc(C[C@@H]2CN(CCN3CCc4ncccc4C3)CCN2C(=O)c2cc(C(F)(F)F)cc(C(F)(F)F)c2)cc1O.Cl.Cl.Cl
215 to 220 | Cl.Cl.O=C(c1cc(C(F)(F)F)cc(C(F)(F)F)c1)N1CCN(CCCc2cccnc2)C[C@H]1Cc1ccc(F)c(F)c1
218 to 223 | COc1cc(C(=O)N2CCN(Cc3cnn(C)c3)C[C@H]2Cc2ccc(C(F)(F)F)cc2)cc(C(F)(F)F)c1.Cl
180 to 190 | Cc1ccc(CC2CN(CC#Cc3cccnc3)CCN2C(=O)c2cc(C(F)(F)F)cc(C(F)(F)F)c2)cc1O.Cl.Cl (centres unmarked) [Example 7, 1-[3,5-bis(trifluoromethyl)benzoyl]-2-(3-hydroxy-4-methylbenzyl)-4-[3-(3-pyridyl)-2-propynyl]piperazine dihydrochloride]
140 to 156 | Cc1ccc(C[C@@H]2CN(Cc3cnn(CCO)c3)CCN2C(=O)c2cc(C(F)(F)F)cc(C(F)(F)F)c2)cc1O.Cl
197 to 200 | Cl.Cl.O=C(c1cc(C(F)(F)F)cc(C(F)(F)F)c1)N1CCN(Cc2c[nH]c3ncccc23)C[C@H]1Cc1ccc(Cl)c(O)c1
95 to 105 | COC[C@@H]1C[C@@H](OC)CN1CCN1CCN(C(=O)c2cc(C(F)(F)F)cc(C(F)(F)F)c2)[C@H](Cc2ccc(Cl)c(O)c2)C1.Cl.Cl
225 to 235 | COC[C@H]1CN(CCN2CCN(C(=O)c3cc(C(F)(F)F)cc(C(F)(F)F)c3)[C@H](Cc3ccc(C)c(O)c3)C2)CCO1.Cl.Cl
159 to 163 | Cl.Cn1cc(CN2CCN(C(=O)c3cc(C(F)(F)F)cc(C(F)(F)F)c3)[C@H](Cc3ccc(Cl)c(O)c3)C2)cn1
207 to 210 | COC[C@@H]1CN(CCN2CCN(C(=O)c3cc(C(F)(F)F)cc(C(F)(F)F)c3)[C@H](Cc3ccc(C)c(O)c3)C2)CCO1.Cl.Cl [Example 5-(1)]

The remaining lines, values behind:

SMILES | melting point [°C]
C[C@@H]1CN(CCN2CCN(C(=O)c3cc(-c4ccncc4)cc(C(F)(F)F)c3)[C@H](Cc3ccc(C(F)(F)F)cc3)C2)C[C@H](C)O1.Cl.Cl.Cl | 135 to 145
COc1cc(C(=O)N2CCN(CC#CCN3CCOCC3(C)C)C[C@H]2Cc2c[nH]c3ccccc23)cc(C(F)(F)F)c1.Cl.Cl | 190 to 200
COc1cc(C(=O)N2CCN(Cc3cnn(C)c3)C[C@H]2Cc2c[nH]c3ccccc23)cc(C(F)(F)F)c1.Cl | 210 to 220
Cl.Cl.O=C(c1cc(C(F)(F)F)cc(C(F)(F)F)c1)N1CCN(CCCc2cccnc2)C[C@H]1Cc1ccc(F)cc1 | 110.2 to 117.5
COC[C@@H]1CN(CCN2CCN(C(=O)c3cc(SC)cc(C(F)(F)F)c3)[C@H](Cc3ccc(Cl)cc3)C2)CCO1.Cl.Cl | 140 to 146
COC[C@@H]1CN(CCN2CCN(C(=O)c3cc(C(F)(F)F)cc(S(=O)(=O)N4CCCC4)c3)[C@H](Cc3ccc(C)c(O)c3)C2)CCO1.Cl.Cl | 125 to 177
COC[C@@H]1CN(CCN2CCN(C(=O)c3cc(SC)cc(C(F)(F)F)c3)[C@H](Cc3ccc(F)c(OC)c3)C2)CCO1.Cl.Cl | 132 to 135
C[C@@H]1CN(CCN2CCN(C(=O)c3cc(Cl)cc(C(F)(F)F)c3)[C@H](Cc3ccc(Cl)cc3)C2)C[C@H](C)O1.Cl.Cl | 136.4 to 141
COC[C@@H]1C[C@H](COC)CN(CCN2CCN(C(=O)c3cc(C(F)(F)F)cc(C(F)(F)F)c3)[C@H](Cc3ccc(F)c(OC)c3)C2)C1.Cl.Cl | 150 to 156
COC[C@@H]1CN(CCN2CCN(C(=O)c3cc(Cl)cc(C(F)(F)F)c3)[C@H](Cc3ccc(C(F)(F)F)cc3)C2)CCO1.Cl.Cl | 168 to 173
COc1cc(C(=O)N2CCN(Cc3cccnc3)C[C@H]2Cc2ccc(C(F)(F)F)cc2)cc(C(F)(F)F)c1.Cl.Cl | 101 to 108
COC[C@@H]1CN(CCN2CCN(C(=O)c3cc(OC)cc(C(F)(F)F)c3)[C@H](Cc3ccc4ccccc4c3)C2)CCO1.Cl.Cl | 134 to 140
CS(=O)(=O)c1cc(C(=O)N2CCN(CCN3CCc4ncccc4C3)C[C@H]2Cc2ccc(Cl)cc2)cc(C(F)(F)F)c1.Cl.Cl.Cl | 198 to 213
CSc1cc(C(=O)N2CCN(CCN3CCc4ncccc4C3)C[C@H]2Cc2ccc(Cl)c(O)c2)cc(C(F)(F)F)c1.Cl.Cl.Cl | 169 to 178
COc1cc(C[C@@H]2CN(CCN3CCC[C@H]3CO)CCN2C(=O)c2cc(C(F)(F)F)cc(C(F)(F)F)c2)ccc1F.Cl.Cl | 198 to 201
COC[C@@H]1CN(CCN2CCN(C(=O)c3cc(C(F)(F)F)cc(C(F)(F)F)c3)[C@H](Cc3ccc(C)c(N4CCOCC4)c3)C2)CCO1.Cl.Cl.Cl | 150 to 170
COc1cc(C(=O)N2CCN(CCN3CCc4ncccc4C3)C[C@H]2Cc2ccc(C)c(O)c2)cc(C(F)(F)F)c1.Cl.Cl.Cl | 192 to 208
COC[C@@H]1CN(CCN2CCN(C(=O)c3cc(C(F)(F)F)cc(C(F)(F)F)c3)[C@H](Cc3ccc(C(C)C)c(O)c3)C2)CCO1.Cl.Cl | 218 to 228
COC[C@@H]1CN(CCN2CCN(C(=O)c3cc(C(F)(F)F)cc(C(F)(F)F)c3)[C@H](Cc3ccc(F)c(C)c3)C2)CCO1.Cl.Cl | 151 to 156
COC[C@@H]1CN(CCN2CCN(C(=O)c3cc(SC)cc(C(F)(F)F)c3)[C@H](Cc3ccc(C)c(O)c3)C2)CCO1.Cl.Cl | 154 to 168
COC[C@@H]1CN(CC#CCN2CCN(C(=O)c3cc(C(F)(F)F)cc(C(F)(F)F)c3)C(Cc3ccc(C)c(O)c3)C2)[C@@H](C)CO1.Cl.Cl (some centres unmarked) | 110 to 135
COc1cc(C(=O)N2CCN(CCN3CCC(F)(F)CC3)C[C@H]2Cc2ccc(F)cc2)cc(C(F)(F)F)c1.Cl.Cl | 258.4 to 261.4
C[C@@H]1CN(CCN2CCN(C(=O)c3cc(N(C)C)cc(C(F)(F)F)c3)[C@H](Cc3ccc(Cl)cc3)C2)C[C@H](C)O1.Cl.Cl | 148.2 to 153.3
Cl.Cl.Cl.Cl.O=C(c1cc(-c2ccncc2)cc(C(F)(F)F)c1)N1CCN(CCN2CCc3ncccc3C2)C[C@H]1Cc1ccc(Cl)cc1 | 206 to 217
COC[C@@H]1CN(CCN2CCN(C(=O)c3cc(C(F)(F)F)cc(C(F)(F)F)c3)[C@H](Cc3ccc(F)c(OC)c3)C2)[C@@H](C)CO1.Cl.Cl | 140 to 164
COc1cc(C[C@@H]2CN(CCN3C[C@@H](C)O[C@@H](C)C3)CCN2C(=O)c2cc(C(F)(F)F)cc(C(F)(F)F)c2)ccc1C(F)(F)F.Cl.Cl | 160 to 170

From patent US7166598B2, “Piperazine derivatives” (Astellas Pharma Inc., priority 1998, dated 2007)
